US10597388B2, “Pyridazinone herbicides” (FMC CORPORATION, priority 2014, dated 2020)

Columns and labels:
Format in all cases: in vivo
corn (Zea mays) [1] = assay: Test A greenhouse herbicide test, pre- and postemergence; details: Postemergence; for Plant response rating, Corn: 125 g ai/ha, visual rating after approx. 10 d, 0 to 100 scale (0 no effect, 100 complete control); for Corn plant response rating: 500 g ai/ha, 0 to 100 scale, 0 is no effect, 100 is complete control
Procedure, shortened: (§1)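 Seeds sown in loam–sand blend got a preemergence directed soil spray of compound in non-phytotoxic solvent with surfactant. Postemergence treatment was given at 2–10 cm, one- to two-leaf stage. After ~10 d in greenhouse, injury was rated visually vs untreated controls, 0 (no effect) to 100 (complete control).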

[2] = system: wheat (Triticum aestivum); assay: as above; details: Postemergence; for Plant response rating, Wheat: 125 g ai/ha; for Wheat plant response rating: 500 g ai/ha, 0 to 100 scale, 0 is no effect, 100 is complete control
Procedure, shortened: as §1

[3] = system: foxtail, giant (giant foxtail, Setaria faberii); assay: as above
Procedure, shortened: as §1

[4] = system: ryegrass, Italian (Italian ryegrass, Lolium multiflorum); assay: as above
Procedure, shortened: as §1

[5] = system: nutsedge, yellow (yellow nutsedge, Cyperus esculentus); assay: Test C greenhouse herbicide test, pre- and postemergence
Procedure, shortened: (§2)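 Preemergence: seeds sown in a loam soil–sand blend and sprayed with test chemicals in a non-phytotoxic solvent mixture containing surfactant. Postemergence: plants grown in peat-based medium and treated at 2 to 18 cm (1- to 4-leaf stage). After 13 to 15 d in a greenhouse, injury was visually rated 0–100 against controls.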

corn (Zea mays) [6] = assay: as above
Procedure, shortened: as §2

soybean (Glycine max) = assay: as above
Procedure, shortened: as §2

[7] = system: velvetleaf (Abutilon theophrasti); assay: as above
Procedure, shortened: as §2

[8] = system: blackgrass (Alopecurus myosuroides); assay: as above
Procedure, shortened: as §2

[9] = system: pigweed (Amaranthus retroflexus); assay: as above
Procedure, shortened: as §2

[10] = system: waterhemp (common waterhemp, Amaranthus rudis); assay: as above
Procedure, shortened: as §2

[11] = Postemergence, 125 g ai/ha, visual rating after approx. 10 d, 0 to 100 scale (0 no effect, 100 complete control)
[12] = Postemergence, 500 g ai/ha, 0 to 100 scale, 0 is no effect, 100 is complete control
[13] = Preemergence, 125 g ai/ha, 0 to 100 scale where 0 is no effect and 100 is complete control
[14] = Preemergence, 500 g ai/ha, 0 to 100 scale, 0 no effect, 100 complete control
[15] = Postemergence, 31 g ai/ha, 0 to 100 scale (0 no effect, 100 complete control)
[16] = Postemergence, 250 g ai/ha, scale 0 to 100, 0 no effect, 100 complete control, 13 to 15 d
[17] = Preemergence, 31 g ai/ha, scale 0 to 100, 0 is no effect, 100 is complete control
[18] = Preemergence, 62 g ai/ha, scale 0 to 100, 0 is no effect, 100 is complete control
[19] = Preemergence, 125 g ai/ha, scale 0 to 100, 0 is no effect, 100 is complete control
[20] = Preemergence, 250 g ai/ha, scale 0 to 100, 0 no effect, 100 complete control
[21] = postemergence, 62 g ai/ha, scale 0 to 100, 0 no effect, 100 complete control
[22] = Postemergence, 125 g ai/ha, scale 0 to 100, 0 is no effect, 100 is complete control

Cc1ccc2ccccc2c1-c1c(O)c(I)nn(C)c1=O [Compound 29]
Plant response rating, Corn (corn (Zea mays) [1]): 10
Corn plant response rating (corn (Zea mays) [1]): 40
Plant response rating, Wheat ([2]; 0 to 100 scale where 0 is no effect and 100 is complete control): 40
Wheat plant response rating [2]: 60
Plant response rating, Foxtail, Giant [3, 11]: 80
Foxtail, Giant plant response rating [3, 12]: 90
Foxtail, Giant plant response rating [3, 13]: 80
Plant response rating, Foxtail, Giant [3, 14]: 90
Plant response rating, Ryegrass, Italian ([4]; Postemergence, 125 g ai/ha, 0 to 100 scale where 0 is no effect and 100 is complete control): 90
Ryegrass, Italian plant response rating [4, 12]: 100
Ryegrass, Italian plant response rating [4, 13]: 80
Plant response rating, Ryegrass, Italian [4, 14]: 90
Nutsedge, Yellow plant response rating [5, 15]: 25
Plant response rating, Nutsedge, Yellow [5, 16]: 75
Plant response rating, Nutsedge, Yellow [5, 17]: 15
Plant response rating, Nutsedge, Yellow [5, 18]: 80
Plant response rating, Nutsedge, Yellow [5, 19]: 85
Nutsedge, Yellow plant response rating [5, 20]: 85
Nutsedge, Yellow plant response rating [5, 21]: 35
Corn plant response rating (corn (Zea mays) [6]; [15]): 0
Plant response rating, Corn (corn (Zea mays) [6]; [22]): 30
Plant response rating, Corn (corn (Zea mays) [6]; [16]): 20
Plant response rating, Corn (corn (Zea mays) [6]; [17]): 0
Plant response rating, Corn (corn (Zea mays) [6]; [18]): 0
Plant response rating, Corn (corn (Zea mays) [6]; [19]): 0
Corn plant response rating (corn (Zea mays) [6]; [20]): 45
Corn plant response rating (corn (Zea mays) [6]; [21]): 10
Soybean plant response rating (soybean (Glycine max); [15]): 0
Plant response rating, Soybean (soybean (Glycine max); [22]): 20
Plant response rating, Soybean (soybean (Glycine max); [16]): 25
Plant response rating, Soybean (soybean (Glycine max); [18]): 0
Plant response rating, Soybean (soybean (Glycine max); [19]): 0
Soybean plant response rating (soybean (Glycine max); [20]): 0
Soybean plant response rating (soybean (Glycine max); [21]): 10
Velvetleaf plant response rating [7, 15]: 35
Plant response rating, Velvetleaf [7, 22]: 85
Plant response rating, Velvetleaf [7, 16]: 90
Plant response rating, Velvetleaf [7, 18]: 90
Plant response rating, Velvetleaf [7, 19]: 100
Velvetleaf plant response rating [7, 20]: 100
Velvetleaf plant response rating [7, 21]: 80
Blackgrass plant response rating [8, 15]: 40
Plant response rating, Blackgrass [8, 22]: 60
Plant response rating, Blackgrass [8, 16]: 75
Plant response rating, Blackgrass [8, 17]: 50
Plant response rating, Blackgrass [8, 18]: 50
Plant response rating, Blackgrass [8, 19]: 85
Blackgrass plant response rating [8, 20]: 85
Blackgrass plant response rating [8, 21]: 50
Pigweed plant response rating [9, 15]: 95
Plant response rating, Pigweed [9, 22]: 98
Plant response rating, Pigweed [9, 16]: 98
Plant response rating, Pigweed [9, 17]: 100
Plant response rating, Pigweed [9, 18]: 100
Plant response rating, Pigweed [9, 19]: 100
Pigweed plant response rating [9, 20]: 100
Pigweed plant response rating [9, 21]: 95
Waterhemp plant response rating [10, 15]: 70
Plant response rating, Waterhemp [10, 22]: 80
Plant response rating, Waterhemp [10, 16]: 98
Plant response rating, Waterhemp [10, 18]: 100
Plant response rating, Waterhemp [10, 19]: 100
Waterhemp plant response rating [10, 20]: 100
Waterhemp plant response rating [10, 21]: 80

Cn1nc(Br)c(O)c(-c2cccc3ccccc23)c1=O [Compound 20]
Plant response rating, Corn (corn (Zea mays) [1]): 20
Corn plant response rating (corn (Zea mays) [1]): 30
Plant response rating, Wheat ([2]; visual rating after approx. 10 d, 0 to 100 scale (0 no effect, 100 complete control)): 20
Wheat plant response rating [2]: 30
Plant response rating, Foxtail, Giant [3, 11]: 30
Foxtail, Giant plant response rating [3, 12]: 100
Foxtail, Giant plant response rating [3, 13]: 40
Plant response rating, Foxtail, Giant [3, 14]: 90
Plant response rating, Ryegrass, Italian [4, 11]: 100
Ryegrass, Italian plant response rating [4, 12]: 100
Ryegrass, Italian plant response rating [4, 13]: 90
Plant response rating, Ryegrass, Italian [4, 14]: 100
Nutsedge, Yellow plant response rating [5, 15]: 45
Plant response rating, Nutsedge, Yellow [5, 22]: 85
Plant response rating, Nutsedge, Yellow [5, 16]: 95
Plant response rating, Nutsedge, Yellow [5, 17]: 80
Plant response rating, Nutsedge, Yellow [5, 18]: 85
Plant response rating, Nutsedge, Yellow [5, 19]: 95
Nutsedge, Yellow plant response rating [5, 20]: 95
Nutsedge, Yellow plant response rating [5, 21]: 65
Corn plant response rating (corn (Zea mays) [6]; [15]): 5
Plant response rating, Corn (corn (Zea mays) [6]; [22]): 5
Plant response rating, Corn (corn (Zea mays) [6]; [16]): 10
Plant response rating, Corn (corn (Zea mays) [6]; [17]): 0
Plant response rating, Corn (corn (Zea mays) [6]; [18]): 0
Plant response rating, Corn (corn (Zea mays) [6]; [19]): 5
Corn plant response rating (corn (Zea mays) [6]; [20]): 35
Corn plant response rating (corn (Zea mays) [6]; [21]): 5
Soybean plant response rating (soybean (Glycine max); [15]): 0
Plant response rating, Soybean (soybean (Glycine max); [22]): 35
Plant response rating, Soybean (soybean (Glycine max); [16]): 0
Plant response rating, Soybean (soybean (Glycine max); [18]): 20
Plant response rating, Soybean (soybean (Glycine max); [19]): 30
Soybean plant response rating (soybean (Glycine max); [20]): 30
Soybean plant response rating (soybean (Glycine max); [21]): 0
Velvetleaf plant response rating [7, 15]: 25
Plant response rating, Velvetleaf [7, 22]: 85
Plant response rating, Velvetleaf [7, 16]: 100
Plant response rating, Velvetleaf [7, 18]: 90
Plant response rating, Velvetleaf [7, 19]: 100
Velvetleaf plant response rating [7, 20]: 100
Velvetleaf plant response rating [7, 21]: 25
Blackgrass plant response rating [8, 15]: 5
Plant response rating, Blackgrass [8, 22]: 10
Plant response rating, Blackgrass [8, 16]: 45
Plant response rating, Blackgrass [8, 17]: 0
Plant response rating, Blackgrass [8, 18]: 5
Plant response rating, Blackgrass [8, 19]: 40
Blackgrass plant response rating [8, 20]: 80
Blackgrass plant response rating [8, 21]: 10
Pigweed plant response rating [9, 15]: 75
Plant response rating, Pigweed [9, 22]: 98
Plant response rating, Pigweed [9, 16]: 100
Plant response rating, Pigweed [9, 17]: 100
Plant response rating, Pigweed [9, 18]: 100
Plant response rating, Pigweed [9, 19]: 100
Pigweed plant response rating [9, 20]: 100
Pigweed plant response rating [9, 21]: 90
Waterhemp plant response rating [10, 15]: 70
Plant response rating, Waterhemp [10, 22]: 60
Plant response rating, Waterhemp [10, 16]: 90
Plant response rating, Waterhemp [10, 18]: 100
Plant response rating, Waterhemp [10, 19]: 100
Waterhemp plant response rating [10, 20]: 100
Waterhemp plant response rating [10, 21]: 40
